± gives the standard deviation of the averaged measurements.
Legend:
Experiment in all cases: level (log10 ratio to DMSO vehicle control); higher = higher biomarker level / cell amount than vehicle control
Conditions in all cases: in DMSO
[1] = compound: O=C(O)C(F)(F)C(F)(F)C(F)(F)C(F)(F)C(F)(F)C(F)(F)C(F)(F)C(F)F [9-H-Perfluorononanoic acid]
Method: (§1)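 BioMAP Diversity Plus panel of 12 human primary cell co-culture systems (3C, 4H, LPS, SAg, BT, BF4T, BE3C, CASM3C, HDF3CGF, KF3CT, MyoF, Mphg). Compounds were added 1 h before stimulation and left for 24 h (MyoF 48 h; BT 72 h for soluble read-outs or 6 d for IgG). Biomarkers were read by ELISA, cytotoxicity by SRB, PBMC viability and proliferation by Alamar Blue. Each well value was divided by the mean of 8 DMSO control wells on the same plate and log10 transformed; duplicate blinded samples were tested at 4 concentrations.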

Perfluoroheptanoic acid = compound: O=C(O)C(F)(F)C(F)(F)C(F)(F)C(F)(F)C(F)(F)C(F)(F)F [Perfluoroheptanoic acid]
Method: as §1

[2] = compound: FC(F)C(F)(F)COCC1CO1 [((2,2,3,3-Tetrafluoropropoxy)methyl)oxirane]
Method: as §1

[3] = compound: O=C(O)C(F)(F)C(F)(F)OC(F)(F)F [Perfluoro-3-methoxypropanoic acid]
Method: as §1

[4] = compound: O=C(O)C(F)(F)OC(F)(F)C(F)(F)OC(F)(F)F [Perfluoro-3,6-dioxaheptanoic acid]
Method: as §1

[5] = compound: C=C(C)C(=O)OCCC(F)(F)C(F)(F)C(F)(F)C(F)(F)C(F)(C(F)(F)F)C(F)(F)F [(Perfluoro-5-methylhexyl)ethyl 2-methylprop-2-enoate]
Method: as §1

| Test System | level (log10) ([1]; 6700 nM) | level (log10) ([1]; 20000 nM) | level (log10) ([1]; 60000 nM) | level (log10) (Perfluoroheptanoic acid; 6700 nM) | level (log10) (Perfluoroheptanoic acid; 20000 nM) | level (log10) (Perfluoroheptanoic acid; 60000 nM) | level (log10) ([2]; 6700 nM) | level (log10) ([2]; 20000 nM) | level (log10) ([2]; 60000 nM) | level (log10) ([3]; 6700 nM) | level (log10) ([3]; 20000 nM) | level (log10) ([3]; 60000 nM) | level (log10) ([4]; 6700 nM) | level (log10) ([4]; 20000 nM) | level (log10) ([4]; 60000 nM) | level (log10) ([5]; 6700 nM) | level (log10) ([5]; 20000 nM) |
| --- | --- | --- | --- | --- | --- | --- | --- | --- | --- | --- | --- | --- | --- | --- | --- | --- | --- |
| 3C:CCL2/MCP-1 | -0.001 ± 0.021 | 0.0125 ± 0.0092 | 0.0415 ± 0.005 | 0.0015 ± 0.015 | -0.009 ± 0.013 | 0.032 ± 0.045 | 0.0045 ± 0.025 | 0.016 ± 0.028 | 0.0215 ± 0.042 | -0.0125 ± 0.0064 | -0.0095 ± 0.00071 | 0.0165 ± 0.0064 | -0.023 ± 0.044 | -0.015 ± 0.013 | -0.023 ± 0.021 | -0.0145 ± 0.025 | 0.006 ± 0.044 |
| 3C:CD54/ICAM-1 | -0.006 | -0.0055 ± 0.0092 | 0.008 ± 0.013 | 0.0025 ± 0.0035 | -0.0095 ± 0.0092 | 0.008 ± 0.023 | -0.008 ± 0.034 | -0.017 ± 0.025 | -0.002 ± 0.0099 | -0.001 ± 0.021 | -0.034 ± 0.0028 | -0.0055 ± 0.029 | -0.0325 ± 0.0064 | -0.0165 ± 0.019 | 0.0035 ± 0.005 | -0.009 ± 0.0014 | -0.01 ± 0.0071 |
| 3C:CD62E/E-Selectin | -0.009 ± 0.014 | -0.0145 ± 0.0092 | 0.006 ± 0.025 | 0.007 ± 0.0042 | 0.0125 ± 0.0078 | 0.0185 ± 0.00071 | 0.0085 ± 0.0021 | 0.0105 ± 0.03 | 0.003 ± 0.047 | 0.0015 ± 0.016 | -0.0155 ± 0.016 | 0.0005 ± 0.0078 | -0.0045 ± 0.016 | -0.02 ± 0.017 | 0.01 ± 0.0071 | -0.0095 ± 0.018 | -0.0175 ± 0.0021 |
| 3C:CD106/VCAM-1 | -0.025 ± 0.016 | -0.018 ± 0.035 | -0.0185 ± 0.04 | 0.0165 ± 0.018 | -0.02 ± 0.0042 | -0.003 ± 0.014 | -0.0005 ± 0.0092 | -0.0225 ± 0.023 | -0.0125 ± 0.011 | -0.0015 ± 0.0064 | -0.009 ± 0.024 | 0.0015 ± 0.018 | -0.0185 ± 0.019 | -0.008 ± 0.0071 | -0.001 ± 0.018 | -0.032 ± 0.0099 | -0.012 ± 0.0085 |
| 3C:CD141/Thrombomodulin | 0.012 ± 0.0085 | -0.003 ± 0.0085 | -0.0365 ± 0.0078 | 0.0185 ± 0.0035 | 0.0035 ± 0.00071 | 0.0205 ± 0.0021 | -0.007 ± 0.0085 | -0.0185 ± 0.049 | -0.0145 ± 0.039 | 0.0005 ± 0.087 | -0.0245 ± 0.036 | -0.0215 ± 0.023 | -0.037 ± 0.04 | -0.0105 ± 0.044 | -0.0255 ± 0.077 | 0.041 ± 0.033 | 0.005 ± 0.033 |
| 3C:CD142/Tissue Factor | 0.035 ± 0.0028 | 0.027 ± 0.0042 | 0.059 ± 0.023 | -0.0065 ± 0.037 | -0.004 ± 0.027 | 0.0285 ± 0.039 | -0.0175 ± 0.07 | -0.032 ± 0.05 | -0.036 ± 0.071 | -0.0125 ± 0.066 | -0.049 ± 0.034 | -0.0095 ± 0.057 | -0.0295 ± 0.047 | -0.025 ± 0.04 | -0.053 ± 0.0014 | 0.0205 ± 0.015 | -0.0295 ± 0.046 |
| BE3C:Keratin 8/18 | -0.006 ± 0.0085 | 0.005 ± 0.0042 | -0.012 ± 0.018 | -0.0135 ± 0.005 | -0.0135 ± 0.0078 | -0.0025 ± 0.012 | -0.004 ± 0.0071 | -0.019 ± 0.031 | -0.0045 ± 0.0021 | -0.0155 ± 0.0092 | -0.006 ± 0.017 | -0.003 ± 0.024 | -0.033 ± 0.041 | -0.0085 ± 0.022 | -0.03 ± 0.017 | -0.0185 ± 0.0092 | 0.0005 ± 0.0064 |
| BE3C:MMP-1 | 0.043 ± 0.045 | 0.061 ± 0.0028 | 0.204 ± 0.047 | 0.0345 ± 0.015 | 0.0405 ± 0.043 | 0.0865 ± 0.067 | -0.013 ± 0.02 | -0.0335 ± 0.019 | -0.0185 ± 0.0078 | -0.0025 ± 0.018 | 0.002 ± 0.013 | 0.0155 ± 0.00071 | -0.042 ± 0.048 | -0.0015 ± 0.057 | 0.0145 ± 0.037 | 0.026 ± 0.0042 | 0.014 ± 0.0057 |
| BE3C:MMP-9 | 0.015 ± 0.02 | 0.0415 ± 0.00071 | 0.0255 ± 0.0021 | 0.0015 ± 0.018 | 0.042 ± 0.0014 | 0.0785 ± 0.057 | -0.0135 ± 0.015 | -0.03 ± 0.028 | -0.005 ± 0.0028 | 0.009 ± 0.021 | -0.002 ± 0.028 | 0.0285 ± 0.0078 | -0.0395 ± 0.005 | -0.026 ± 0.0042 | -0.019 ± 0.047 | 0.0245 ± 0.039 | 0.022 ± 0.044 |
| BE3C:PAI-I | 0.0195 ± 0.04 | 0.0405 ± 0.023 | -0.0295 ± 0.0021 | 0.007 ± 0.0028 | 0.027 ± 0.0057 | 0.042 ± 0.021 | -0.0145 ± 0.028 | -0.015 ± 0.034 | -0.011 ± 0.018 | -0.012 ± 0.0057 | -0.009 ± 0.018 | 0.012 ± 0.0014 | -0.037 ± 0.055 | 0.0125 ± 0.053 | 0.0055 ± 0.018 | 0.007 ± 0.03 | 0.0205 ± 0.019 |
| BE3C:SRB | -0.0075 ± 0.0035 | -0.007 ± 0.0057 | -0.0105 ± 0.0035 | -0.006 ± 0.0071 | -0.0065 ± 0.0035 | 0.0035 ± 0.011 | -0.0015 ± 0.005 | -0.001 ± 0.0014 | 0.0085 ± 0.023 | -0.001 | -0.004 ± 0.0014 | 0.004 ± 0.018 | 0.0005 ± 0.0064 | -0.0025 ± 0.00071 | 0.0015 ± 0.0064 | 0.009 ± 0.0099 | 0.0065 ± 0.016 |
| BE3C:tPA | 0.075 ± 0.023 | 0.0285 ± 0.019 | 0.002 ± 0.025 | -0.0205 ± 0.026 | -0.0255 ± 0.0078 | 0.017 ± 0.031 | -0.006 ± 0.031 | -0.015 ± 0.024 | -0.0165 ± 0.00071 | -0.007 ± 0.04 | -0.0075 ± 0.019 | 0.004 ± 0.0071 | -0.025 ± 0.0099 | -0.0485 ± 0.0021 | -0.03 ± 0.033 | -0.0245 ± 0.00071 | -0.0325 ± 0.021 |
| BE3C:uPA | 0.0085 ± 0.0021 | 0.003 ± 0.014 | -0.002 ± 0.0028 | -0.002 ± 0.0042 | 0.0055 ± 0.0035 | 0.0255 ± 0.015 | -0.0105 ± 0.025 | -0.021 ± 0.035 | -0.004 ± 0.025 | -0.004 ± 0.0014 | -0.0025 ± 0.0021 | 0.0005 ± 0.0092 | -0.0495 ± 0.079 | -0.028 ± 0.069 | -0.011 ± 0.041 | -0.001 ± 0.016 | -0.0005 ± 0.016 |
| CASM3C:CCL2/MCP-1 | 0.0125 ± 0.0092 | -0.0015 ± 0.00071 | 0.017 ± 0.0071 | -0.0115 ± 0.015 | -0.013 ± 0.011 | 0.032 ± 0.044 | -0.001 ± 0.0028 | -0.0105 ± 0.012 | 0.021 ± 0.075 | -0.0175 ± 0.032 | -0.0215 ± 0.03 | 0.017 ± 0.0099 | -0.0445 ± 0.09 | -0.0325 ± 0.067 | -0.039 ± 0.095 | 0.002 ± 0.023 | 0.0105 ± 0.005 |
| CASM3C:CD87/uPAR | -0.001 ± 0.014 | 0.0045 ± 0.011 | 0.029 ± 0.0057 | -0.0005 ± 0.0078 | -0.019 ± 0.031 | -0.0055 ± 0.036 | -0.029 ± 0.016 | -0.0415 ± 0.005 | -0.034 ± 0.014 | -0.021 ± 0.048 | -0.0235 ± 0.035 | -0.031 ± 0.033 | -0.0105 ± 0.043 | 0.022 ± 0.013 | -0.006 ± 0.018 | -0.0305 ± 0.013 | -0.035 |
| CASM3C:CD106/VCAM-1 | -0.0215 ± 0.012 | -0.019 ± 0.02 | -0.0315 ± 0.005 | -0.0085 ± 0.0035 | -0.0135 ± 0.021 | 0.012 ± 0.054 | 0.0035 ± 0.022 | -0.012 ± 0.037 | 0.026 ± 0.033 | -0.0155 ± 0.013 | -0.03 ± 0.0071 | 0.012 ± 0.02 | 0.0345 ± 0.029 | 0.0105 ± 0.037 | -0.06 ± 0.021 | -0.017 ± 0.014 | -0.0175 ± 0.026 |
| CASM3C:CD141/Thrombomodulin | -0.003 ± 0.0099 | -0.0075 ± 0.0035 | 0.0075 ± 0.0021 | -0.0085 ± 0.025 | 0.0065 ± 0.0064 | 0.011 ± 0.033 | -0.0315 ± 0.012 | 0.0015 ± 0.0092 | 0.0225 ± 0.033 | -0.003 ± 0.0028 | -0.014 ± 0.0099 | 0.021 ± 0.04 | 0.032 ± 0.0085 | 0.019 ± 0.03 | 0.0295 ± 0.013 | -0.0185 ± 0.069 | 0.0165 ± 0.098 |

From the supplement of paper PMC10331698
